In experiment [1] the test system is Escherichia coli NIH JC-2. Description: MIC, standard method of Japanese Chemotherapy Academy. The format is cell-based. To be noted: Objected Strain 3: Escherichia coli NIH JC-2. How it is done: (§1) 1. Minimum Inhibitory Concentration (MIC) was measured in accordance with the standard method of Japanese Chemotherapy Academy (Chemotherapy, 29: 76-79, 1981).
Experiment [2] concerns Helicobacter pylori No. 1. Description: MIC and MBC, liquid medium dilution. Type of experiment: cell-based. The note with it: Objected Strain 4: Helicobacter pylori No. 1. As to the method:
(§2) 2. Minimum Inhibitory Concentration (MIC) and Minimum Bacteria sterilizeory Concentration (MBC) against helicobacter pylon were measured in accordance with the liquid medium dilution. […] And […] of helicobacter pylon bacterial solution, which was cultured at 37° C. for three days and then diluted and prepared with the above mentioned liquid medium, was added to the mixtures to adjust the volume to 105 CFU/ml. […] After they were cultured by the same method as above mentioned, minimum concentration of the compounds which were not recognized the growth with the naked eyes were measured as the values of MBC.

The test system of experiment [3] is Helicobacter pylori No. 3. As to the kind of experiment: MIC and MBC, liquid medium dilution. The note with it: Objected Strain 6: Helicobacter pylori No. 3. Type of experiment: cell-based. How it is done:
as §2

Experiment [4] has as its system Helicobacter pylori ATCC 43504. Description: MIC and MBC, liquid medium dilution. To be noted: Objected Strain 1: Helicobacter pylori ATCC 43504. The format is cell-based. How it is done: as §2
The test system of experiment [5] is Helicobacter pylori ATCC 43629. As to the kind of experiment: MIC and MBC, liquid medium dilution. Type of experiment: cell-based. To be noted: Objected Strain 2: Helicobacter pylori ATCC 43629. How it is done: as §2
Experiment [6] relates to Helicobacter pylori No. 4. Description: MIC and MBC, liquid medium dilution. The format is cell-based. The note with it: Objected Strain 7: Helicobacter pylori No. 4. How it is done: as §2
In experiment [7] the test system is Helicobacter pylori No. 2. As to the kind of experiment: MIC and MBC, liquid medium dilution. The format is cell-based. To be noted: Objected Strain 5: Helicobacter pylori No. 2. As to the method: as §2
Experiment [8] relates to Helicobacter pylori No. 1. Description: MIC, agar plating dilution, clinical segregation strain. The note with it: Strain 4: Helicobacter pylori No. 1. Type of experiment: cell-based. In a few lines:
(§3)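 Agar plate dilution per Japanese Chemotherapy Society standard method, with compounds from DMSO solutions mixed into Brain Heart Infusion agar containing 0.1% cyclodextrin. Plates were read after 3 days at 37 °C under microaerobic conditions.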

For experiment [9], the system named is Helicobacter pylori No. 3. The description is as above. The format is cell-based. To be noted: Strain 6: Helicobacter pylori No. 3. An outline of the steps:
as §3

In experiment [10] the test system is Helicobacter pylori No. 28. The description is as above. Type of experiment: cell-based. The note with it: Strain 10: Helicobacter pylori No. 28. In a few lines:
as §3

The test system of experiment [11] is Helicobacter pylori No. 20. The experiment is described as above. The format is cell-based. The note with it: Strain 9: Helicobacter pylori No. 20. In a few lines: as §3
Experiment [12] has as its system Helicobacter pylori No. 4. Described as above. Type of experiment: cell-based. The note with it: Strain 7: Helicobacter pylori No. 4. An outline of the steps:
as §3

Experiment [13] relates to Helicobacter pylori No. 19. The experiment is described as above. The format is cell-based. The note with it: Strain 8: Helicobacter pylori No. 19. In a few lines:
as §3

Experiment [14] concerns Helicobacter pylori No. 2. The experiment is described as above. Type of experiment: cell-based. The note with it: Strain 5: Helicobacter pylori No. 2. In a few lines: as §3
Experiment [15] deals with Staphylococcus aureus 209PJC. As to the kind of experiment: MIC, standard method of Japanese Chemotherapy Academy. Type of experiment: cell-based. The note with it: Strain 11: Staphylococcus aureus 209PJC. How it is done:
as §1
(§4) And MIC of the compounds of Example 3, 36, 8, 14, 17, 21, 41 and 45 were measured.

The test system of experiment [16] is Staphylococcus aureus No. 2 (MRSA). The experiment is described as above. To be noted: Strain 14: Staphylococcus aureus No. 2 (MRSA). Type of experiment: cell-based. As to the method: as §1, §4
The subject of experiment [17] is Staphylococcus aureus ATCC 6538. The experiment is described as above. Type of experiment: cell-based. The note with it: Strain 12: Staphylococcus aureus ATCC 6538. As to the method:
as §1, §4

Experiment [18] deals with Bacillus subtilis ATCC 6633. Described as above. The format is cell-based. As to the method: as §1, §4
For experiment [19], the system named is Helicobacter pylori ATCC 43504. Description: MIC, agar plating dilution (standard method of Japanese Chemotherapy Academy). The note with it: Objected Strain 1: Helicobacter pylori ATCC 43504. Type of experiment: cell-based. In a few lines: (§5)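 Agar dilution MIC followed the Japanese Chemotherapy Academy standard method, on Brain Heart Infusion agar with 0.1% cyclodextrin and compounds dissolved in DMSO. Plates were incubated microaerobically at 37 °C for three days.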

For experiment [20], the system named is Helicobacter pylori ATCC 43629. The experiment is described as above. The format is cell-based. The note with it: Objected Strain 2: Helicobacter pylori ATCC 43629. An outline of the steps:
as §5

For another experiment, the system named is helicobacter pylori. Description: MIC of benexart hydrochloride, for reference. Type of experiment: cell-based. To be noted: strain and medium not given. As to the method:
For reference, the value of MIC of benexart hydrochloride was >100 µg/ml.

The subject of experiment [21] is ethanol hydrochloride ulceration. The note with it: against an ethanol hydrochloride ulceration; cited from earlier work.

Bounds are passed on as bounds.

On to `Cc1ccc(COC(=O)c2ccc(-c3ccc(OC(=O)[C@H]4CC[C@H](CNC(=N)N)CC4)cc3)cc2)cc1.Cl` [Example 14, trans-4-guanidinomethyl cyclohexane carboxylic acid [4-[4-(4-methylbenzyloxy carbonyl)phenyl]phenylester].hydrochloride], for which the MIC (as a rule, the lowest concentration found to suppress growth) is above 25 µg/mL in experiment [1]; 0.20 µg/mL in experiment [2]; 0.10 µg/mL in [3]; 0.20 µg/mL in experiment [4]; 0.39 µg/mL in [5]; 0.39 µg/mL in experiment [6]. Besides, the minimal inhibitory concentration (MIC) in [7] was determined as 0.39 µg/mL; in experiment [8], 0.10 µg/mL; in experiment [9], 0.10 µg/mL; in [10], 0.39 µg/mL; in experiment [11], 0.39 µg/mL; in experiment [12], 0.20 µg/mL. Further, the MIC was 0.20 µg/mL in experiment [13]; 0.39 µg/mL in experiment [14]; above 25 µg/mL in [15]; above 25 µg/mL in [16]; above 25 µg/mL in experiment [17]; above 25 µg/mL in experiment [18] (Strain 13: Bacillus subtilis ATCC 6633). In addition, the minimal inhibitory concentration (MIC) in experiment [19] and in experiment [20] was 0.39 µg/mL in each case. Besides, the MBC (as a rule, the smallest concentration meeting the test's criterion for killing) in experiment [2] came to 0.20 µg/mL; in [3], 0.10 µg/mL; in experiment [4], 0.20 µg/mL; in experiment [5], 1.56 µg/mL; in experiment [6], 0.39 µg/mL; in experiment [7], 1.56 µg/mL. The MIC against bacillus subcillus ATCC 6633 in [18] (standard method of Japanese Chemotherapy Academy) is above 25 µg/mL.
For `Cl.NC(N)=NCC1CCC(C(=O)Oc2ccccc2C(=O)OCc2ccccc2)CC1` (centres unmarked) [benexart hydrochloride], the MIC with helicobacter pylori is above 100 µg/mL.
Turning to `N=C(N)NCC1CCC(C(=O)Oc2ccc(CCC(=O)NO)cc2)CC1` (centres unmarked) [Formula (XIV)], the ulceration restraining ratio in [21] is listed as 88.7%.

(Values after patent US6831190B1, “Guanidinomethyl cyclohexane carboxylic acid ester derivatives” (Teikoku Chemical Industries Co., Ltd., priority 1994, dated 2004).)
